This is an account of results in ChEMBL document CHEMBL5338719, “Recent advance on pleiotropic cholinesterase inhibitors bearing amyloid modulation efficacy” (Eur J Med Chem, 2022).

Experiment [1] addresses T1, Amyloid-beta precursor protein (Homo sapiens, UniProt P05067). In words: Inhibition of amyloid beta 42 (unknown origin) aggregation at 100 uM relative to control.
Experiment [2] deals with T2, Acetylcholinesterase (Homo sapiens, UniProt P22303). In words: Inhibition of human AChE.
Experiment [3] addresses T3, Cholinesterase (Homo sapiens, UniProt P06276). In words: Inhibition of human BChE.
The target in experiment [4] is T4, Beta-secretase 1 (Homo sapiens, UniProt P56817). In words: Inhibition of BACE1 (unknown origin) at 50 uM by FRET assay relative to control.
Experiment [5] addresses T1, Amyloid-beta precursor protein. In words: Inhibition of amyloid beta 1 to 42 (unknown origin) aggregation at 50 uM by ThT binding assay relative to control.
In experiment [6] the target is T5, Acetylcholinesterase (Electrophorus electricus, UniProt O42275). In words: Inhibition of electric eel AChE using acetylthiocholine iodine as substrate by Ellman's method. Background: Ellman's reagent forms a yellow product with free thiols.
Experiment [7] has as its target T1, Amyloid-beta precursor protein. In words: Inhibition of amyloid beta 1 to 42 (unknown origin) self induced aggregation at 100 uM by thioflavin T-based fluorometric assay relative to control.
For experiment [8] the target is unchanged. In words: Inhibition of amyloid beta 42 (unknown origin) aggregation at 25 uM relative to control.
Experiment [9] has the same target. In words: Inhibition of amyloid beta 42 (unknown origin) aggregation at 25 uM by Thioflavin T-based fluorescence assay relative to control.
Experiment [10] has as its target T6, Cholinesterase (Equus caballus, UniProt P81908). In words: Inhibition of equine BChE by Ellman's method.
Experiment [11] has as its target T2, Acetylcholinesterase. In words: Inhibition of human AChE by Ellman's method.
In experiment [12] the target is T3, Cholinesterase. In words: Inhibition of human BChE by Ellmans method.
The target in experiment [13] is T5, Acetylcholinesterase. In words: Inhibition of electric eel AChE by Ellman's method.
For experiment [14], the target named is T1, Amyloid-beta precursor protein. In words: Inhibition of amyloid beta 42 (unknown origin) self aggregation at 25 uM by ThT fluorometric assay relative to control.
Experiment [15] addresses T3, Cholinesterase. In words: Inhibition of human […] BChE using BTC iodide as substrate preincubated for 5 mins followed by substrate addition measured Ellmans method.
Experiment [16] has as its target Microtubule-associated protein tau (Homo sapiens) (UniProt P10636). In words: Inhibition of tau (306 to 336 residue) (unknown origin) aggregation at 50 uM incubated overnight by ThT fluorometric assay relative to control.
For experiment [17], the target named is T2, Acetylcholinesterase. In words: Inhibition of human erythrocyte AChE using ATC iodide as substrate preincubated for 5 mins followed by substrate addition measured Ellmans method.
Experiment [18] concerns the target T1, Amyloid-beta precursor protein. In words: Inhibition of amyloid beta 1 to 42 (unknown origin) self aggregation at 50 uM for 24 hrs by ThT fluorometric assay relative to control.
Experiment [19] deals with T6, Cholinesterase. In words: Inhibition of equine BChE incubated for 15 mins by Ellman's method.
The target of experiment [20] is T4, Beta-secretase 1. In words: Inhibition of BACE1 (unknown origin) expressed in purified baculovirus using RhEVNLDAEFK-Quencher as substrate incubated at 50 uM for 90 mins in dark relative to control.
Experiment [21] concerns the target T5, Acetylcholinesterase. In words: Inhibition of electric eel AChE incubated for 15 mins by Ellman's method.
The target in experiment [22] is T4, Beta-secretase 1. In words: Inhibition of BACE1 (unknown origin) by FRET-based fluorescent analysis.
For experiment [23], the target named is T2, Acetylcholinesterase. In words: Inhibition of human AChE by Ellmans method.
Experiment [24] addresses T6, Cholinesterase. In words: Inhibition of equine BChE using butyrylthiocholine iodide incubated for 3 mins by Ellman's method.
Experiment [25] addresses T4, Beta-secretase 1. In words: Inhibition of BACE1 (unknown origin) at 50 uM by FRET-based enzyme assay relative to control.
For experiment [26], the target named is T1, Amyloid-beta precursor protein. In words: Inhibition of amyloid beta 1 to 42 (unknown origin) CuCl2 induced aggregation at 40 uM by ThT fluorometric assay relative to control.
Experiment [27] shares this target. In words: Inhibition of amyloid beta (25 to 35) (unknown origin) aggregation at 10 uM relative to control.
Experiment [28] addresses T5, Acetylcholinesterase. In words: Inhibition of electric eel AChE.
The target in experiment [29] is T6, Cholinesterase. In words: Inhibition of equine BChE.
Experiment [30] concerns the target T4, Beta-secretase 1. In words: Inhibition of BACE1 (unknown origin).
The target in experiment [31] is T2, Acetylcholinesterase. In words: Inhibition of human erythrocyte AChE using […] as substrate preincubated for 5 mins followed by substrate addition measured Ellmans method.
Experiment [32] deals with T1, Amyloid-beta precursor protein. In words: Inhibition of amyloid beta 42 (unknown origin) aggregation at 50 uM by Thioflavin T-based fluorescence assay relative to control.

T1 sequence (P05067 whole entry): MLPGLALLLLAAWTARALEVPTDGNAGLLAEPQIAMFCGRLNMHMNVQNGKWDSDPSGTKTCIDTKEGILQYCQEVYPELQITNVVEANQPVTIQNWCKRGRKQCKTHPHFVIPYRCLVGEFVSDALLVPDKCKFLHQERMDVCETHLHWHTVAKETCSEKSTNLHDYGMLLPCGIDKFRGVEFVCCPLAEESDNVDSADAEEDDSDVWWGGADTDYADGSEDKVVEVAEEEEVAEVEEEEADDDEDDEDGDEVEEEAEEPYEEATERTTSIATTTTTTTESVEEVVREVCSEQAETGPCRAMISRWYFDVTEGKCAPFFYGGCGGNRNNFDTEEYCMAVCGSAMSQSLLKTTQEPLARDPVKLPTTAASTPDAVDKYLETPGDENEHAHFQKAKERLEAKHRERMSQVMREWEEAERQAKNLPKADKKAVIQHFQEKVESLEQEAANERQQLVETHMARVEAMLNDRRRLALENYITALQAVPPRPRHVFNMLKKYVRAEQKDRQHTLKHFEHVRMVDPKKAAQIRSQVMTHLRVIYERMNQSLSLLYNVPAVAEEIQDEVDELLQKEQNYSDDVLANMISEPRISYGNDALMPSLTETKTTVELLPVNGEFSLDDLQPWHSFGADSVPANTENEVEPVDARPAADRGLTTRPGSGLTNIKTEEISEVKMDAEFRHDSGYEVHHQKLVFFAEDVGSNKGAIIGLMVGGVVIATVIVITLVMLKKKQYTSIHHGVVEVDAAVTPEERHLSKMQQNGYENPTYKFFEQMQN
T3 sequence (P06276 whole entry): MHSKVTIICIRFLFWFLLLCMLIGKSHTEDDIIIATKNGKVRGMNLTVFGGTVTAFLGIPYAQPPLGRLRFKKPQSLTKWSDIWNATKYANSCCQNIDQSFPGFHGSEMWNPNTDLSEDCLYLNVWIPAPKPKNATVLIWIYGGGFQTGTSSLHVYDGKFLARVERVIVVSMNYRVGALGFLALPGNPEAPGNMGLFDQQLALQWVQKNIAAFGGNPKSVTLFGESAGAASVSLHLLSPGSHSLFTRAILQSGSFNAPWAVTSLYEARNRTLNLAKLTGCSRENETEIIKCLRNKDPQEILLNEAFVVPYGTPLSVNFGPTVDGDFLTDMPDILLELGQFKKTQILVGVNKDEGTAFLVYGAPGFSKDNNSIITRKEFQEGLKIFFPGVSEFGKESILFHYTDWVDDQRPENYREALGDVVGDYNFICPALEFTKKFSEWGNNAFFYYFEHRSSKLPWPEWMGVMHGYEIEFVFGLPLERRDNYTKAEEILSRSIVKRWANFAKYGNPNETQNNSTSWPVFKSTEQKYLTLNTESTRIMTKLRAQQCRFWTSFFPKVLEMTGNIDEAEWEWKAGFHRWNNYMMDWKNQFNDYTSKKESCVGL
T4 sequence (P56817 whole entry): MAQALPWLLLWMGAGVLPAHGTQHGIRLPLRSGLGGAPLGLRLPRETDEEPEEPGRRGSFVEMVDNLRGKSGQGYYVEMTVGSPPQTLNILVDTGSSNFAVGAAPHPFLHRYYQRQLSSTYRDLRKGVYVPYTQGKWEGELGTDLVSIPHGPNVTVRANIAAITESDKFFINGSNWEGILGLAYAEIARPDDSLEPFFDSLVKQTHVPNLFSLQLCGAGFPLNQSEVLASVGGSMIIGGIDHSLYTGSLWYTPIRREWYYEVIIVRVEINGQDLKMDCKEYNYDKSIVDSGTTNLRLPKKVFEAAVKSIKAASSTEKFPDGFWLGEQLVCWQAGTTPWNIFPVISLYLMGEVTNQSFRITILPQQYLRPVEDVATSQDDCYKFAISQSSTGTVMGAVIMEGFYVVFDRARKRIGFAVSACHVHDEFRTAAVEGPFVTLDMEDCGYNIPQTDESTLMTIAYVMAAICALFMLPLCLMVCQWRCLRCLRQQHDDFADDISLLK
T5 sequence (O42275 whole entry): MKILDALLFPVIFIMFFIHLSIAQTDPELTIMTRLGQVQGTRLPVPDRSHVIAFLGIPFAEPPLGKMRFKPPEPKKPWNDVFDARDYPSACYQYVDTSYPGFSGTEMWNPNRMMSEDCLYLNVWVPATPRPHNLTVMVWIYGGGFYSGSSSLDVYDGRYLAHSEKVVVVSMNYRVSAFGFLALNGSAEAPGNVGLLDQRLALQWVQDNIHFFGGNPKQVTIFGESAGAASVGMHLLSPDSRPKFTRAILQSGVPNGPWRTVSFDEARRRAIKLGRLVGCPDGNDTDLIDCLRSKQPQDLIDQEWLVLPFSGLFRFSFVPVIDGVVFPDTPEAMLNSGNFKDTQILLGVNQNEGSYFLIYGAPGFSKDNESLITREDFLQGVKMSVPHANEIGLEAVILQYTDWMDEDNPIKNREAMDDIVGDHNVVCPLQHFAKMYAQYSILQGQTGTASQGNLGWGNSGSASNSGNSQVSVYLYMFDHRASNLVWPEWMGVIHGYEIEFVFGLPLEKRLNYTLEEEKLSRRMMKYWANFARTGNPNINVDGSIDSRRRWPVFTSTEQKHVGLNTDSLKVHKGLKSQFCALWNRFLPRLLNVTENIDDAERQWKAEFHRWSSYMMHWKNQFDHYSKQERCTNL
T2 sequence (P22303 whole entry): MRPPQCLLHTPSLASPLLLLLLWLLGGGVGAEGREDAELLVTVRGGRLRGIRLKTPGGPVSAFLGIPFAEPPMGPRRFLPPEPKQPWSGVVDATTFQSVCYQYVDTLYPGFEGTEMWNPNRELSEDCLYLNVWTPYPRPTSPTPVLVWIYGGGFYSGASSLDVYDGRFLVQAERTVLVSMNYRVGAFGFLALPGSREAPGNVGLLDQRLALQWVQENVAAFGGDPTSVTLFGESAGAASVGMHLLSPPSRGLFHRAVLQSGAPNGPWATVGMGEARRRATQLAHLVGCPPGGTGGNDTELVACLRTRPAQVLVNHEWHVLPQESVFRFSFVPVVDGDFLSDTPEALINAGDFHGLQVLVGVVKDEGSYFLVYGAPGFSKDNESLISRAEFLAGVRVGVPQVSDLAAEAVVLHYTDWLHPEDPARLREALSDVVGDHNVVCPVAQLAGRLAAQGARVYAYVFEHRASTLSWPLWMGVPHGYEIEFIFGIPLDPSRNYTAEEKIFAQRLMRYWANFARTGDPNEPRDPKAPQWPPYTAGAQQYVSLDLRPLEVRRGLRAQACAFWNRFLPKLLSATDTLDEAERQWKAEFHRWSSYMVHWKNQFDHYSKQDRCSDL
T6 sequence (P81908 whole entry): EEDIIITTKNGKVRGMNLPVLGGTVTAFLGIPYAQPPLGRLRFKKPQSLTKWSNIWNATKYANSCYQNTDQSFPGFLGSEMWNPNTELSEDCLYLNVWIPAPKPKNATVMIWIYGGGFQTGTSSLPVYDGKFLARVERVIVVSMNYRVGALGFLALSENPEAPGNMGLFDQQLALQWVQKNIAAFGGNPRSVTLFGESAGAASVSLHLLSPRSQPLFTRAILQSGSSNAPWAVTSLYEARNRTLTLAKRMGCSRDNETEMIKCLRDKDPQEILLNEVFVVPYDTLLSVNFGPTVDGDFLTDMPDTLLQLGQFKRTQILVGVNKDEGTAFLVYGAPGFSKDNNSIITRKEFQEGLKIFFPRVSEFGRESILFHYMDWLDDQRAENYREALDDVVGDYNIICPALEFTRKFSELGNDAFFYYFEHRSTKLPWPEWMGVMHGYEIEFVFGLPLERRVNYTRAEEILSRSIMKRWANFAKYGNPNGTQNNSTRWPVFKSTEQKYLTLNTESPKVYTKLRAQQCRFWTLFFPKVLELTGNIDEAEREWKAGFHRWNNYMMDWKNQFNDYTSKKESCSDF
Sequence of Microtubule-associated protein tau (Homo sapiens) (P10636 whole entry): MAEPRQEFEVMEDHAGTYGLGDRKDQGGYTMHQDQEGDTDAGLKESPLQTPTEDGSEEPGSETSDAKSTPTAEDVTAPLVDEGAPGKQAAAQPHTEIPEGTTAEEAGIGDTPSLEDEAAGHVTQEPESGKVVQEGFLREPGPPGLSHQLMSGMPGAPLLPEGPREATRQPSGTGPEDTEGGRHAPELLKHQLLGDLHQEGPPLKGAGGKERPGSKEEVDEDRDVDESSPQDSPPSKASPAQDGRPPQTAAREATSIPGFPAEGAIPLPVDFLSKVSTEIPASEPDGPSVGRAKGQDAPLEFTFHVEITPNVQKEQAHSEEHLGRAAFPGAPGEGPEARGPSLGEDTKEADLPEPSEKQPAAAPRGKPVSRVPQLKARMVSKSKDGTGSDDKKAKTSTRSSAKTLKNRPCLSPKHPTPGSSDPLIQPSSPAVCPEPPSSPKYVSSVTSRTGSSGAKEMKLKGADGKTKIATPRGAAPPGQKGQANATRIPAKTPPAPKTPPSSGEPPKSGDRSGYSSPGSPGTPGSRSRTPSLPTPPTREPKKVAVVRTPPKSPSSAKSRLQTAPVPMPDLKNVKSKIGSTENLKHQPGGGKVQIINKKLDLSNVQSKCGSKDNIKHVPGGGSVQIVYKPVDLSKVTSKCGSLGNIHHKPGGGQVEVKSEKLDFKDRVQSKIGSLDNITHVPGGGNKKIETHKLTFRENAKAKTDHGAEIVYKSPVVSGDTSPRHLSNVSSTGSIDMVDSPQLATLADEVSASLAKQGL

The inhibition is the percentage by which the read-out fell short of the control. Lower therefore signals little suppression. One may read the IC50 as the midpoint of a concentration-inhibition curve. In experiment [1], `COC(=O)c1cc(C(=O)c2ccc(OC)cc2)n2ccc(CCCc3cc[n+](C)cc3)cc12` displayed an inhibition of 55%. Also, the IC50 turned out to be 3.3 µM against Acetylcholinesterase [2] and 38.9 µM against Cholinesterase [3].
`COc1ccc(/C=C/C(=O)NCCc2cc3ccccc3[nH]2)cc1OC`: the values for the inhibition (against Beta-secretase 1 [4]; in experiment [5]) were 40.7% and 10.1%, respectively. This molecule had an IC50 against Acetylcholinesterase [6] of 11.5 µM.
`CCN(CCCCCOc1cc(O)c2c(c1)OC(c1ccc(O)cc1)CC2=O)Cc1ccccc1` (stereo unspecified): the inhibition in experiment [7] stood at 62.1%.
In experiment [8], `O=C(CCCN(Cc1ccccn1)Cc1ccccn1)NCCCNc1c2c(nc3ccccc13)CCCC2` gave an inhibition of 71.1%.
Molecule `c1cc2[nH]c3nc(NCCCCCCN4CCCC4)nnc3c2cc1N1CCCCC1` displayed an inhibition in [9] of 54.3%. In addition, the IC50 at Cholinesterase [10] stood at 210 nM; against Acetylcholinesterase [11], 320 nM.
Turning to `O=C(/C=C/c1cccs1)N1CCc2ccccc2C1`, the results for the IC50 against Cholinesterase [12] and at Acetylcholinesterase [13] were 2500 nM and 19.4 µM, respectively. The molecule further came in with an inhibition in experiment [14] of 65.2%.
For `CCOC(=O)C1=C(C)N(CCC2CCN(Cc3ccccc3)CC2)C(=O)NC1c1coc2c(Cl)cc(Cl)cc2c1=O` (stereo unspecified), the IC50 worked out at 17.3 µM against Cholinesterase [15] and 60 nM against Acetylcholinesterase [17]. Further, the inhibition in experiment [16] was 73.7%; in experiment [18], 63.6%.
In the case of `O=C(NC1CCN(Cc2ccccc2)CC1)c1cc(-c2cccc([N+](=O)[O-])c2)on1`, the IC50 against Cholinesterase [19] was found to be 15.2 µM; on Acetylcholinesterase [21], 16.1 µM. On Beta-secretase 1 [20], this molecule gave an inhibition of 24.3%.
Regarding `FC(F)(F)c1ccc(-c2nnc(CNC3CCN(Cc4ccccc4)C3)o2)cc1` (stereo unspecified), the IC50 worked out at 143 nM against Beta-secretase 1 [22], 64 nM at Acetylcholinesterase [23] and 74 nM at Cholinesterase [12].
As to `O=C(CCCCC1CCSS1)NCc1cn(CCCCOc2ccc3c(=O)ccoc3c2)nn1` (stereo unspecified), the IC50 on Cholinesterase [24] came out at 7.5 µM.
With `O=C(Nc1ccc(Oc2ccc3ccc(=O)oc3c2)cc1)c1cc(-c2cccc([N+](=O)[O-])c2)on1`, the IC50 on Acetylcholinesterase [13] came out at 1.23 µM. The inhibition at Beta-secretase 1 [25] stood at 48.5%.
For the molecule `CC(C)C1NC(=O)C=C1NCCN1CCN(Cc2ccccc2)CC1` (stereo unspecified), the inhibition in [26] was determined as 78.4%.
In turn, `O=C(NCCNc1c2c(nc3cc(Cl)ccc13)CCCC2)c1cc(-c2ccc(Cl)cc2)on1` displayed an inhibition in experiment [27] of 79.4%. The IC50 against Acetylcholinesterase [28] was 52 nM; against Cholinesterase [29], 372 nM; against Beta-secretase 1 [30] it was 1.65 µM.
`O=c1nc2sc3ccccc3n2c2ncccc12`: on Acetylcholinesterase [31], the IC50 was determined as 2780 nM. In addition, the inhibition in [32] stood at 30.8%.
For `N=c1oc2ccccc2cc1C(=O)Nc1cc(Br)ccc1N1CCN(Cc2ccc(F)cc2)CC1`, the IC50 at Cholinesterase [3] was found to be 10.5 µM; against Beta-secretase 1 [30], 6.31 µM.
